Measurements published in patent US11535643B2, “Macrolides with modified desosamine sugars and uses thereof” (President and Fellows of Harvard College, priority 2015, dated 2022).

Key:
Format in all cases: cell-based
S. aureus = assay: Broth dilution MIC determination (CLSI) against S. aureus strains
From the text: (§1) Minimum inhibitory concentrations (MICs) for macrolides described herein have been determined for unique strains of S. aureus, S. pneumoniae, S. pyogenes, E. faecalis, E. coli, A. baumannii, K. pneumoniae, P. aeruginosa, and H. influenzae, including several multidrug-resistant strains, with a special focus on macrolide resistant mechanisms. Azithromycin and solithromycin were included as control compounds. CLSI standard procedures for broth dilution MIC determination were used. Data for exemplary compounds described herein is shown in Tables M1-M7 and in Tables N1-N4.

S. pneumoniae = assay: Broth dilution MIC determination (CLSI) against S. pneumoniae strains
From the text: as §1

S. pyogenes = assay: Broth dilution MIC determination (CLSI) against S. pyogenes strains
From the text: as §1

E. faecalis = assay: Broth dilution MIC determination (CLSI) against E. faecalis strains
From the text: as §1

E. coli = assay: Broth dilution MIC determination (CLSI) against E. coli strains
From the text: as §1

A. baumannii = assay: Broth dilution MIC determination (CLSI) against A. baumannii strains
From the text: as §1

K. pneumoniae = assay: Broth dilution MIC determination (CLSI) against K. pneumoniae strains
From the text: as §1, with “used.” for “used. Data for exemplary compounds described herein is shown in Tables M1-M7 and in Tables N1-N4.”

P. aeruginosa = assay: Broth dilution MIC determination (CLSI) against P. aeruginosa strains
From the text: as §1

[1] = S. aureus (MRSA) GISA USA600, strain MP-619 UNT-120 (Table N2)
[2] = S. aureus (MRSA) ST-228 cErm, strain MP-513 (Table N2)
[3] = S. aureus (MRSA) USA100, strain MP-618 UNT-096 (Table N2)
[4] = S. aureus (MRSA) USA300, strain MP-549 (Table N2)
[5] = S. aureus (MRSA) ermA phenotype, strain MP-620 UNT-146 (Table N2)
[6] = S. aureus ATCC29213, strain MP-12 (Table N2)
[7] = S. aureus ATCCBAA-977, strain MP-17 (Table N2)
[8] = S. pneumoniae ATCC49619, strain MP-21 (Table N2)
[9] = S. pneumoniae mefA, strain MP-626 UNT-038 (Table N2)
[10] = S. pneumoniae mefA, strain MP-627 UNT-039 (Table N2)
[11] = S. pyogenes ATCC19615, strain MP-19 (Table N2)
[12] = S. pyogenes mac resistant, strain MP-625 UNT-014 (Table N2)
[13] = E. faecalis ATCC29212, strain MP-24 (Table N2)
[14] = E. faecalis van resistant, strain UNT-039 (Table N2)
[15] = E. coli ATCC25922, strain MP-4 (Table N2)
[16] = E. coli ATCC25922:tolC, strain MP-9 (Table N2)
[17] = E. coli clinical, strain MP541 (Table N2)
[18] = E. coli clinical-cErm, strain MP532 (Table N2)
[19] = A. baumannii ATCC19606, strain MP-15 (Table N2)
[20] = A. baumannii clinical, strain MP576 (Table N2)
[21] = A. baumannii clinical, strain MP577 (Table N2)
[22] = K pneumomae ATCC10031, strain MP-14 (Table N2)
[23] = K. pneumoniae clinical, strain MP546 (Table N2)
[24] = K. pneumoniae clinical, strain MP548 (Table N2)
[25] = P. aeruginosa ATCC27853, strain MP-3 (Table N2)
[26] = P. aeruginosa PAO1, strain MP-7 (Table N2)
[27] = P. aeruginosa PAO1:mex, strain MP-8 (Table N2)

CCC1OC(=O)C(C)C(=O)C(C)C(OC2OC(C)CC(NCC#N)C2O)C(C)(OC)CC(C)CNC(C)C2N(CCCCn3cc(-c4cccc(N)c4)nn3)C(=O)OC12C (stereo not drawn) [FSM-120369]
4 µg/mL: MIC E. faecalis ATCC29212 (E. faecalis; ATCC29212, Strain No. MP-24)
0.25 µg/mL: MIC S. pneumoniae mefA (S. pneumoniae; Strain No. MP-626 UNT-038) | MIC S. pneumoniae mefA (S. pneumoniae; Strain No. MP-627 UNT-039)
32 µg/mL: MIC S. aureus ATCC29213 (S. aureus; ATCC29213, Strain No. MP-12) | MIC S. aureus ATCCBAA-977 (S. aureus; ATCCBAA-977, Strain No. MP-17) | MIC S. aureus (MRSA) USA300 (S. aureus; USA300, Strain No. MP-549)
2 µg/mL: MIC S. pyogenes mac resistant (S. pyogenes; mac resistant, Strain No. MP-625 UNT-014)
0.5 µg/mL: MIC S. pneumoniae ATCC49619 (S. pneumoniae; ATCC49619, Strain No. MP-21) | MIC S. pyogenes ATCC19615 (S. pyogenes; ATCC19615, Strain No. MP-19)
16 µg/mL: MIC K. pneumoniae ATCC10031 (K. pneumoniae; ATCC10031, Strain No. MP-14)
>64 µg/mL: MIC S. aureus (MRSA) GISA USA600 (S. aureus; GISA USA600, Strain No. MP-619 UNT-120) | MIC S. aureus (MRSA) ST-228 cErm (S. aureus; ST-228 cErm, Strain No. MP-513) | MIC S. aureus (MRSA) USA100 (S. aureus; USA100, Strain No. MP-618 UNT-096) | MIC S. aureus (MRSA) ermA phenotype (S. aureus; ermA phenotype, Strain No. MP-620 UNT-146) | MIC E. faecalis van resistant (E. faecalis; van resistant, Strain No. UNT-039) | MIC E. coli ATCC25922 (E. coli; ATCC25922, Strain No. MP-4) | MIC E. coli ATCC25922:tolC (E. coli; ATCC25922:tolC, Strain No. MP-9) | MIC E. coli clinical (E. coli; clinical, Strain No. MP541) | MIC E. coli clinical-cErm (E. coli; clinical-cErm, Strain No. MP532) | MIC A. baumannii ATCC19606 (A. baumannii; ATCC19606, Strain No. MP-15) | MIC A. baumannii clinical (A. baumannii; Strain No. MP576) | MIC A. baumannii clinical (A. baumannii; Strain No. MP577) | MIC K. pneumoniae clinical (K. pneumoniae; Strain No. MP546) | MIC K. pneumoniae clinical (K. pneumoniae; Strain No. MP548) | MIC P. aeruginosa ATCC27853 (P. aeruginosa; ATCC27853, Strain No. MP-3) | MIC P. aeruginosa PAO1 (P. aeruginosa; PAO1, Strain No. MP-7) | MIC P. aeruginosa PAO1:mex (P. aeruginosa; PAO1:mex, Strain No. MP-8)

CCC1OC(=O)C(C)C(=O)C(C)C(OC2OC(C)CC(N(C)CC#N)C2O)C(C)(OC)CC(C)CNC(C)C2N(CCCCn3cc(-c4cccc(N)c4)nn3)C(=O)OC12C (stereo not drawn) [FSM-120371]
4 µg/mL: MIC (E. faecalis; [13])
0.125 µg/mL: MIC (S. pyogenes; [11])
>64 µg/mL: MIC (S. aureus; [1]) | MIC (S. aureus; [2]) | MIC (S. aureus; [3]) | MIC (S. aureus; [5]) | MIC (E. coli; [18]) | MIC (A. baumannii; [20]) | MIC (A. baumannii; [21]) | MIC (K. pneumoniae; [23]) | MIC (K. pneumoniae; [24]) | MIC (P. aeruginosa; [25]) | MIC (P. aeruginosa; [26])
64 µg/mL: MIC (S. aureus; [4]) | MIC (E. faecalis; [14]) | MIC (E. coli; [15]) | MIC (E. coli; [17])
32 µg/mL: MIC (S. aureus; [6]) | MIC (S. aureus; [7]) | MIC (A. baumannii; [19]) | MIC (P. aeruginosa; [27])
0.25 µg/mL: MIC (S. pneumoniae; [8]) | MIC (S. pneumoniae; [9])
0.5 µg/mL: MIC (S. pneumoniae; [10])
8 µg/mL: MIC (K. pneumoniae; [22])
16 µg/mL: MIC (E. coli; [16])
1 µg/mL: MIC (S. pyogenes; [12])

CCC1OC(=O)C(C)C(=O)C(C)C(OC2OC(C)CC(N(CCO)CCO)C2O)C(C)(OC)CC(C)CNC(C)C2N(CCCCn3cc(-c4cccc(N)c4)nn3)C(=O)OC12C (stereo not drawn) [FSM-120379]
16 µg/mL: MIC (S. pyogenes; [12])
32 µg/mL: MIC (E. faecalis; [13]) | MIC (E. coli; [16]) | MIC (K. pneumoniae; [22])
1 µg/mL: MIC (S. pneumoniae; [9]) | MIC (S. pneumoniae; [10])
2 µg/mL: MIC (S. pneumoniae; [8])
>64 µg/mL: MIC (S. aureus; [1]) | MIC (S. aureus; [2]) | MIC (S. aureus; [3]) | MIC (S. aureus; [4]) | MIC (S. aureus; [5]) | MIC (S. aureus; [6]) | MIC (S. aureus; [7]) | MIC (E. faecalis; [14]) | MIC (E. coli; [15]) | MIC (E. coli; [17]) | MIC (E. coli; [18]) | MIC (A. baumannii; [19]) | MIC (A. baumannii; [20]) | MIC (A. baumannii; [21]) | MIC (K. pneumoniae; [23]) | MIC (K. pneumoniae; [24]) | MIC (P. aeruginosa; [25]) | MIC (P. aeruginosa; [26]) | MIC (P. aeruginosa; [27])
4 µg/mL: MIC (S. pyogenes; [11])
